Measurements published in patent US10155768B2, “Fused pyrimidine compound or salt thereof” (TAIHO PHARMACEUTICAL CO., LTD., priority 2016, dated 2018).

Test: Evaluation of stability in liver microsome
Details: mouse liver microsome 0.25 mg/mL, 1 μM test compound, 37° C. for 30 minutes

SMILES	Remaining (%)
COCc1ccc(NC(=O)c2c(C#Cc3cnn(C(C)C)c3)n(C3(C)CC3)c3ncnc(N)c23)cc1 [Example 144, 4-amino-6-((1-isopropyl-1H-pyrazol-4-yl)ethynyl)-N-(4-(methoxymethyl)phenyl)-7-(1-methylcyclopropyl)-7H-pyrrolo[2,3-d]pyrimidine-5-carboxamide]	79%
COCc1ccc(NC(=O)c2c(-c3ccc(CO)cc3)n(C3(C)CC3)c3ncnc(N)c23)cc1 [Example 145, 4-amino-6-(4-(hydroxymethyl)phenyl)-N-(4-(methoxymethyl)phenyl)-7-(1-methylcyclopropyl)-7H-pyrrolo[2,3-d]pyrimidine-5-carboxamide]	72%
COCc1ccc(NC(=O)c2c(-c3ccc(NC(C)=O)nc3)n(C3(C)CC3)c3ncnc(N)c23)cc1 [Example 147, 6-(6-acetamidopyridin-3-yl)-4-amino-N-(4-(methoxymethyl)phenyl)-7-(1-methylcyclopropyl)-7H-pyrrolo[2,3-d]pyrimidine-5-carboxamide]	68%
COCc1ccc(NC(=O)c2c(-c3ccc(O)cc3)n(C3(C)CC3)c3ncnc(N)c23)cc1 [Example 148, 4-amino-6-(4-hydroxyphenyl)-N-(4-(methoxymethyl)phenyl)-7-(1-methylcyclopropyl)-7H-pyrrolo[2,3-d]pyrimidine-5-carboxamide]	61%
C=C(C)c1c(C(=O)Nc2ccc(COC)cc2)c2c(N)ncnc2n1C1(C)CC1 [Example 149, 4-amino-N-(4-(methoxymethyl)phenyl)-7-(1-methylcyclopropyl)-6-(prop-1-en-2-yl)-7H-pyrrolo[2,3-d]pyrimidine-5-carboxamide]	62%
COCc1ccc(NC(=O)c2c(-c3cnn(C)c3)n(C3(C)CC3)c3ncnc(N)c23)cc1 [Example 150, 4-amino-N-(4-(methoxymethyl)phenyl)-6-(1-methyl-1H-pyrazol-4-yl)-7-(1-methylcyclopropyl)-7H-pyrrolo[2,3-d]pyrimidine-5-carboxamide]	78%
COCc1ccc(NC(=O)c2c(C#CCC3CCOCC3)n(C3(C)CC3)c3ncnc(N)c23)cc1 [Example 152, 4-amino-N-(4-(methoxymethyl)phenyl)-7-(1-methylcyclopropyl)-6-(3-(tetrahydro-2H-pyran-4-yl)prop-1-yn-1-yl)-7H-pyrrolo[2,3-d]pyrimidine-5-carboxamide]	57%
COCc1ccc(NC(=O)c2c(-c3ccccc3)n(C3(C)CC3)c3ncnc(N)c23)cc1 [Example 154, 4-amino-N-(4-(methoxymethyl)phenyl)-7-(1-methylcyclopropyl)-6-phenyl-7H-pyrrolo[2,3-d]pyrimidine-5-carboxamide]	50%
COCc1ccc(NC(=O)c2c(C#Cc3ccc(N)nc3)n(C3(C)CC3)c3ncnc(N)c23)cc1 [Example 155, 4-amino-6-((6-aminopyridin-3-yl)ethynyl)-N-(4-(methoxymethyl)phenyl)-7-(1-methylcyclopropyl)-7H-pyrrolo[2,3-d]pyrimidine-5-carboxamide]	64%
COCc1ccc(NC(=O)c2c(C#CCC3NC(=O)NC3=O)n(C3(C)CC3)c3ncnc(N)c23)cc1 (stereo not drawn) [Example 156, 4-amino-6-(3-(2,5-dioxoimidazolidin-4-yl)prop-1-yn-1-yl)-N-(4-(methoxymethyl)phenyl)-7-(1-methylcyclopropyl)-7H-pyrrolo[2,3-d]pyrimidine-5-carboxamide]	67%
CCC(O)CC#Cc1c(C(=O)Nc2ccc(COC)cc2)c2c(N)ncnc2n1C1(C)CC1 (stereo not drawn) [Example 157, 4-amino-6-(4-hydroxyhex-1-yn-1-yl)-N-(4-(methoxymethyl)phenyl)-7-(1-methylcyclopropyl)-7H-pyrrolo[2,3-d]pyrimidine-5-carboxamide]	59%
COCc1ccc(NC(=O)c2c(C#Cc3ccc4c(c3)NCCO4)n(C3(C)CC3)c3ncnc(N)c23)cc1 [Example 158, 4-amino-6-((3,4-dihydro-2H-benzo[b][1,4]oxazin-6-yl)ethynyl)-N-(4-(methoxymethyl)phenyl)-7-(1-methylcyclopropyl)-7H-pyrrolo[2,3-d]pyrimidine-5-carboxamide]	85%
COCc1ccc(NC(=O)c2c(C#Cc3cnc4ccoc4c3)n(C3(C)CC3)c3ncnc(N)c23)cc1 [Example 159, 4-amino-6-(furo[3,2-b]pyridin-6-ylethynyl)-N-(4-(methoxymethyl)phenyl)-7-(1-methylcyclopropyl)-7H-pyrrolo[2,3-d]pyrimidine-5-carboxamide]	78%
COCc1ccc(NC(=O)c2c(C#Cc3ccc[nH]3)n(C3(C)CC3)c3ncnc(N)c23)cc1 [Example 161, 6-((1H-pyrrol-2-yl)ethynyl)-4-amino-N-(4-(methoxymethyl)phenyl)-7-(1-methylcyclopropyl)-7H-pyrrolo[2,3-d]pyrimidine-5-carboxamide]	68%
COCc1ccc(NC(=O)c2c(C#Cc3ccccc3)n(C3(C)CC3)c3ncnc(N)c23)cc1 [Example 162, 4-amino-N-(4-(methoxymethyl)phenyl)-7-(1-methylcyclopropyl)-6-(phenylethynyl)-7H-pyrrolo[2,3-d]pyrimidine-5-carboxamide]	76%
COCc1ccc(NC(=O)c2c(C#Cc3ccc(OC)cc3)n(C3(C)CC3)c3ncnc(N)c23)cc1 [Example 165, 4-amino-N-(4-(methoxymethyl)phenyl)-6-((4-methoxypheny)ethynyl)-7-(1-methylcyclopropyl)-7H-pyrrolo[2,3-d]pyrimidine-5-carboxamide]	90%
COCc1ccc(NC(=O)c2c(-c3cn[nH]c3)n(C3(C)CC3)c3ncnc(N)c23)cc1 [Example 167, 4-amino-N-(4-(methoxymethyl)phenyl)-7-(1-methylcyclopropyl)-6-(1H-pyrazol-4-yl)-7H-pyrrolo[2,3-d]pyrimidine-5-carboxamide]	80%
COCc1ccc(NC(=O)c2c(-c3ccc(N4CCN(C)CC4)cc3)n(C3(C)CC3)c3ncnc(N)c23)cc1 [Example 171, 4-amino-N-(4-(methoxymethyl)phenyl)-7-(1-methylcyclopropyl)-6-(4-(4-methylpiperazin-1-yl)phenyl)-7H-pyrrolo[2,3-d]pyrimidine-5-carboxamide]	77%
COCc1ccc(NC(=O)c2c(C#Cc3ccccn3)n(C3(C)CC3)c3ncnc(N)c23)cc1 [Example 172, 4-amino-N-[4-(methoxymethyl)phenyl]-7-(1-methylcyclopropyl)-6-(pyridin-2-ylethynyl)-7H-pyrrolo[2,3-d]pyrimidine-5-carboxamide]	61%
COCc1ccc(NC(=O)c2c(C#CC(C)(C)O)n(C3(C)CC3)c3ncnc(N)c23)cc1 [Example 174, 4-amino-6-(3-hydroxy-3-methylbut-1-yn-1-yl)-N-(4-(methoxymethyl)phenyl)-7-(1-methylcyclopropyl)-7H-pyrrolo[2,3-d]pyrimidine-5-carboxamide]	72%
COCc1ccc(NC(=O)c2c(C#Cc3cncc(F)c3)n(C3(C)CC3)c3ncnc(N)c23)cc1 [Example 175, 4-amino-6-((5-fluoropyridin-3-yl)ethynyl)-N-(4-(methoxymethyl)phenyl)-7-(1-methylcyclopropyl)-7H-pyrrolo[2,3-d]pyrimidine-5-carboxamide]	66%
